One assay has as its target T1, δ opiate receptor (Rattus norvegicus, UniProt P33533).
T1 construct: The rat brain, which was freshly prepared in each case, was homogenized; from tissue; host or cells: brain of male Wistar rats, without the cerebellum, pons and medulla oblongata (membrane homogenate)
Description: δ opiate receptor binding (displacement of (3H)-2-D-ala-deltorphin II, rat brain membrane homogenate). The following applies: mean values ± standard deviations of ≥3 independent tests; 1 nmole/l (3H)-2-D-ala-deltorphin II; pH 7.4; 90 minutes at 37° C.; Ki from IC50 by Cheng-Prussoff equation. Also noted: species or system male Wistar rats. How it is done:
δ Opiate Receptor Binding Investigations
Tests to determine the affinity of the compounds of formula (I) according to the invention for the δ opiate receptor were performed on meninx homogenates (a homogenate of the brain of male Wistar rats, without the cerebellum, pons and medulla oblongata).
The rat brain, which was freshly prepared in each case, was homogenized for this purpose, while being cooled in ice, in 50 mmoles/l Tris-HCl (pH 7.4) and was centrifuged for 10 minutes at 5000 g and 4° C. After decanting and discarding the supernatant liquor, and taking up and homogenising the membrane sediment again in […] Tris-HCl (pH 7.4), the homogenate was subsequently centrifuged for 20 minutes at 20,000 g and 4° C. This washing step was repeated once more. Thereafter, the supernatant liquor was decanted, the membrane sediment was homogenized in cold 50 mmoles/l Tris-HCl, 20% glycerol (w/v), 0.01% bacitracin (w/v) (pH 7.4), and was frozen in aliquots until testing was performed. For the receptor binding tests, the aliquots were thawed and diluted 1:10 with the binding test buffer.
50 mmoles/l Tris-HCl, 5 mmoles/l MgCl2 (pH 7.4) supplemented with 0.1% (w/v) bovine serum albumin, with 1 nmole/l (^3 H)-2-D-ala-deltorphin II as the radioactive ligand, was used as the buffer in the binding test. The proportion of non-specific binding was determined in the presence of 10 μmoles/l naloxone.
In further batches, the compounds according to the invention were added in a series of concentrations and the displacement of the radioactive ligand from its specific binding was determined. The respective triple batches were incubated for 90 minutes at 37° C. and were subsequently harvested by means of filtration through glass fiber filters (GF/B) for the determination of the radioactive ligand bound to the membrane homogenate. The radioactivity of the glass fiber filter discs was measured in a β-counter after adding a scintillator.
The affinity of the compounds according to the invention for the δ opiate receptor was calculated by the mass action law, by means of non-linear regression, as the IC50 value. Ki values were calculated from the IC50 values using the Cheng-Prussoff equation. The Ki values are given as mean values ± standard deviations of ≥3 tests which were independent of each other.

The next assay concerns μ-receptors. To be noted: background statement; cited from earlier work.

Structures can show the parent of a compound that is named as a salt.

T1 sequence (P33533 whole entry): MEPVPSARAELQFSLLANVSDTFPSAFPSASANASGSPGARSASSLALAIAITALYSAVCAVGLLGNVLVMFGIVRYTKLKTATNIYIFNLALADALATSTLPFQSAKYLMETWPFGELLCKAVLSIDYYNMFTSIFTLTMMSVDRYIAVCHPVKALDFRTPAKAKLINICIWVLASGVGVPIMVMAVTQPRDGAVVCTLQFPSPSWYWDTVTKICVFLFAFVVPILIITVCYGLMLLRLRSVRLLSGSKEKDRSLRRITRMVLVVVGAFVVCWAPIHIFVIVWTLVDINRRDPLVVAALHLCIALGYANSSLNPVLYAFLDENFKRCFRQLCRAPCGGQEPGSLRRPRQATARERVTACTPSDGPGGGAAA

On δ opiate receptor, `CN(C)CC1=C(c2cccc(O)c2)c2ccccc2CC1` [Example 1, 3-(2-dimethylaminomethyl-3,4-dihydro-naphth-1-yl)-phenol hydrochloride] registered an inhibition constant (Ki) of 55.8 ± 4.6 nM.

On δ opiate receptor, `CN(C)CC1=C(c2cccc(O)c2)c2ccccc2CCC1` [Example 2a, 3-(6-dimethylaminomethyl-8,9-dihydro-7H-benzo-cyclohepten-5-yl)-phenol hydrochloride] had a Ki of 17.2 ± 4.3 nM.

For the molecule `CCN(CC)CC1=C(c2cccc(O)c2)c2ccccc2CCC1` [Example 2b, 3-(6-diethylaminomethyl-8,9-dihydro-7H-benzocyclohepten-5-yl)-phenol hydrochloride], the Ki on δ opiate receptor was 728 ± 146 nM.

As to `CCCN(CCC)CC1=C(c2cccc(O)c2)c2ccccc2CCC1` [Example 2c, 3-(6-di-n-propylaminomethyl-8,9-dihydro-7H-benzocyclohepten-5-yl)-phenol h ydrochloride], the inhibition constant Ki on δ opiate receptor is 294 ± 106 nM.

With `CN(CCc1ccccc1)CC1=C(c2cccc(O)c2)c2ccccc2CCC1` [Example 2d, 3-{6-[(methyl-phenethyl-amino)-methyl]-8,9-dihydro-7H-benzocyclohepten-5-yl}-phenol hydrochloride], on δ opiate receptor, the affinity, expressed as Ki, was 54.3 ± 8.2 nM.

On δ opiate receptor, `CN(CC1=C(c2cccc(O)c2)c2ccccc2CCC1)Cc1ccccc1` [Example 2e, 3-{6-[(benzyl-methyl-amino)-methyl]-8,9-dihydro-7H-benzocyclohepten-5-yl}-phenol hydrochloride] displayed a Ki of 936 ± 32 nM.

With `CN(C)CC1=C(c2cccc(O)c2)c2ccccc2CCCC1` [Example 2f, 3-(6-dimethylaminomethyl-7,8,9,10-tetrahydrobenzocycloocten-5-yl)-phenol h ydrochloride], at δ opiate receptor, the Ki worked out at 46.3 ± 10.1 nM.

Consider `CN(CC1=C(c2cccc(O)c2)c2ccccc2CCC1)CC1CC1` [Example 2g, 3-{6-[(cyclopropylmethyl-methyl-amino)-methyl]-8,9-dihydro-7H-benzocyclohepten-5-yl}-phenol hydrochloride], for which the Ki on δ opiate receptor is 182 ± 12 nM.

`CN(CCc1ccccn1)CC1=C(c2cccc(O)c2)c2ccccc2CCC1` [Example 2h, 3-(6-{[methyl-(2-pyridin-2-yl-ethyl)-amino]-methyl)-8,9-dihydro-7H-benzocyclohepten-5-yl)-phenol dihydrochloride] returned an inhibitory constant (Ki) at δ opiate receptor of 223 ± 86 nM.

For the molecule `CN(C)CC1=C(c2cccc(O)c2)c2ccccc2C1` [Example 2i, 3-(2-dimethylaminomethyl-3H-inden-1-yl)-phenol hydrochloride], the affinity at δ opiate receptor corresponds to a Ki of 157 ± 16 nM.

For the molecule `CN(C)CC1=C(c2cccc(O)c2)c2ccc3ccccc3c2CC1` [Example 2j, 3-(2-dimethylaminomethyl-3,4-dihydro-phenanthren-1-yl)-phendlydrochloride], the inhibition constant Ki on δ opiate receptor amounted to 80.8 ± 29.7 nM.

In turn, `COc1ccc2c(c1)CCC(CN(C)C)=C2c1ccccc1` [Example 3, (6-methoxy-1-phenyl-3,4-dihydro-naphth-2-ylmethyl)-dimethylamine hydrochloride] showed an inhibition constant Ki on δ opiate receptor of 456 ± 62 nM.

In turn, `COc1cccc2c1CCC(CN(C)C)=C2c1ccccc1` [Example 4, (5-methoxy-1-phenyl-3,4-dihydro-naphth-2-ylmethyl)-dimethylamine hydrochloride] gave an inhibition constant (Ki) on δ opiate receptor of 517 ± 45 nM.

In turn, `CN(C)CC1=C(c2cccc(O)c2)c2ccc(O)cc2CC1` [Example 6, 6-dimethylaminomethyl-5-(3-hydroxy-phenyl)-7,8-dihydro-naphth-2-ol hydrochloride] returned a Ki at δ opiate receptor of 40.9 ± 6.7 nM.

In turn, `CN(C)CC1=C(c2cccc(O)c2)c2cc(Oc3ccccc3)ccc2CC1` [Example 8, 3-(2-dimethylaminomethyl-7-phenoxy-3,4-dihydro-naphth-1-yl)-phenol hydrochloride] yielded an inhibition constant (Ki) on δ opiate receptor of 25.7 ± 10.2 nM.

In the case of `COc1cccc2c1CCC(CN(C)C)=C2c1cccc(O)c1` [Example 9a, 3-(2-dimethylaminomethyl-5-methoxy-3,4-dihydronaphth-1-yl)-phenol hydrochloride], the Ki at δ opiate receptor came out at 23.9 ± 0.9 nM.

For the molecule `CN(C)CC1=C(c2cccc(O)c2)c2cc(-c3ccccc3)ccc2CC1` [Example 9b, 3-(2-dimethylaminomethyl-7-phenyl-3,4-dihydronaphth-1-yl)-phenol hydrochloride], on δ opiate receptor, the inhibition constant (Ki) amounted to 39.3 ± 2.2 nM.

Turning to `CCCCc1ccc2c(c1)C(c1cccc(O)c1)=C(CN(C)C)CC2` [Example 9c, 3-(7-n-butyl-2-dimethylaminomethyl-3,4-dihydronaphth-1-yl)-phenol hydrochloride], the affinity on δ opiate receptor, expressed as Ki, was 42.2 ± 16 nM.

On to `C=CCN(C)CC1=C(c2cccc(O)c2)c2ccccc2CCC1` [Example 10, 3-{6-[allyl-methyl-amino)-methyl]-8,9-dihydro-7H-benzocyclohepten-5-yl}-phenol hydrochloride], for which the inhibition constant (Ki) at δ opiate receptor is 679 ± 214 nM.

On δ opiate receptor, `CC(CN(C)C)=C(c1cccc(O)c1)c1cccc(O)c1` [Example 11a, 3-[3-dimethylamino-1-(3-hydroxyphenyl)-2-methyl-propenyl]-phenol hydrochloride] gave a Ki of 34 ± 5.8 nM.

`C/C(CN(C)C)=C(\c1ccc(-c2ccccc2)cc1)c1cccc(O)c1` [Example 11b, Z-3-(1-biphenyl-4-yl-3-dimethylamino-2-methyl-propenyl)-phenol hydrochloride] returned a Ki at δ opiate receptor of 23.7 ± 1.7 nM.

Regarding `CN1CC[C@]23c4c5ccc(O)c4O[C@H]2[C@@H](O)C=C[C@H]3[C@H]1C5` [morphine], the “selective binding to μ-receptors” value with μ-receptors is “selectively binds to what are termed μ-receptors”.

These data come from patent US6022895A, “Substituted amino compounds and their use as substances having an analgesic effect” (priority 1997, dated 2000).
